The numbers were not newly measured in patent US5681581A, “Controlled release pharmaceutical formulations of 3'-azido-3'-deoxythymidine and methods of use” (priority 1995, dated 1997), which cites them from elsewhere.

One data set concerns reverse transcriptase. Particulars: result in words.
A further data set has as its system DNA polymerase. Particulars: result in words.
A further data set relates to bone marrow cells. Particulars: than AZT.
The conditions of data set [1]: intravenous AZT 2.5 mg/kg, patients.
Data set [2] relates to HIV. Particulars: result in words.
For data set [3] the following is noted: result in words.
The subject of data set [4] is cells of HIV infected patients. As to conditions: HIV infected patients taking AZT.
For data set [5] the following is noted: animals.
The conditions of data set [6]: capsules and liquid solutions, oral.
Data set [7] concerns HIV.

Entries after “also recorded” stand apart in the source; their conditions may differ.

For the compound `Cc1cn([C@H]2C[C@H](N)[C@@H](COP(=O)(O)OP(=O)(O)OP(=O)(O)O)O2)c(=O)[nH]c1=O` [AMT 5'triphosphate], the “inhibition of reverse transcriptase” value with reverse transcriptase was “inhibitor of HIV reverse transcriptase”. For the same compound, the “inhibition of DNA polymerase” value in the data set on DNA polymerase is “inhibitor of DNA polymerase”.

Regarding `Cc1cn([C@H]2C[C@H](N)[C@@H](CO)O2)c(=O)[nH]c1=O` [AMT, 3'-amino-3'-deoxythymidine], the “toxicity to bone marrow cells relative to AZT” value in the data set with bone marrow cells is recorded as 5-7 times more toxic. In addition, in data set [1], the “AMT level relative to AZT by AUC” value is listed as “about twenty”. Further, the “binding of the reverse transcriptase enzyme” value with reverse transcriptase is “competitive binding”. In the data set with HIV [2], the antiviral activity entry was “no antiviral activity; also recorded: poor antiviral activity” and the “effect on the anti-HIV action of AZT” value is on record as “antagonistic effect”. In addition, the anti-cancer effects result in [3] was “potent anti-cancer effects”.

On to `Cc1cn([C@H]2C[C@H](N=[N+]=[N-])[C@@H](CO)O2)c(=O)[nH]c1=O` [AZT, 3'-azido-3'-deoxythymidine], for which the “inhibition of reverse transcriptase” value in the data set with reverse transcriptase is given as “inhibitor of reverse transcriptase”. Further, the “relationship between phosphorylated AZT and dosage or blood levels” value in data set [4] is reported as “showed no relationship”. In addition, in data set [5], the “AMT levels by oral route” value is “higher levels of AMT”. Further, the “absorption from the gastrointestinal tract” value in data set [6] is reported as “rapidly absorbed”. The “effectiveness in asymptomatic sero-positive patients” value in the data set with HIV [7] (1500 mg per day) is given as “not as effective as 500 mg per day”. For the same compound, the toxicity of dose result in the data set with HIV [7] (human, in vivo) was “too toxic”.

As to `Cc1cn([C@H]2C[C@H](N=[N+]=[N-])[C@@H](COP(=O)(O)OP(=O)(O)OP(=O)(O)O)O2)c(=O)[nH]c1=O` [triphosphate form], in the data set with HIV [2], the “inhibitory effect on viral transcription” value is given as “most inhibitory effect”.
